ChEMBL document CHEMBL3217491, “Design, synthesis and biological evaluation of imidazopyridine/pyrimidine-chalcone derivatives as potential anticancer agents” (2010)
The source made the active and inactive calls. The calls are words filed in the database; no cut-off is given here.

Assays:
[1] = Growth inhibition of human HCC2998 cells after 48 hrs by SRB assay; type: functional; details: HCC 2998, 48 h
[2] = Growth inhibition of human BT549 cells after 48 hrs by SRB assay; type: functional; details: BT-549, 48 h
CAKI-1 = assay: Growth inhibition of human Caki1 cells after 48 hrs by SRB assay; type: functional; details: CAKI-1, 48 h
MCF7 [3] = assay: Cell cycle arrest in human MCF7 cells assessed as accumulation at S phase at 4 uM after 24 hrs by propidium iodide staining-based flow cytometry (reference value: 20.17%); type: functional
786-0 = assay: Growth inhibition of human 786-0 cells after 48 hrs by SRB assay; type: functional; details: 786-0, 48 h
U-251 = assay: Growth inhibition of human U251 cells after 48 hrs by SRB assay; type: functional; details: U-251, 48 h
HCT-116 = assay: Growth inhibition of human HCT116 cells after 48 hrs by SRB assay; type: functional; details: HCT-116, 48 h
SNB-19 = assay: Growth inhibition of human SNB19 cells after 48 hrs by SRB assay; type: functional; details: SNB-19, 48 h
[4] = Growth inhibition of human NCI-ADR-RES cells after 48 hrs by SRB assay; type: functional
[5] = Growth inhibition of human UACC62 cells after 48 hrs by SRB assay; type: functional; details: UACC-62, 48 h
NCI-H322M = assay: Growth inhibition of human NCI-H322M cells after 48 hrs by SRB assay; type: functional
[6] = Growth inhibition of human MOLT4 cells after 48 hrs by SRB assay; type: functional; details: MOLT-4, 48 h
PC-3 = assay: Growth inhibition of human PC3 cells after 48 hrs by SRB assay; type: functional; details: PC-3, 48 h
COLO 205 = assay: Growth inhibition of human COLO205 cells after 48 hrs by SRB assay; type: functional; details: COLO 205, 48 h
SK-OV-3 = assay: Growth inhibition of human SKOV3 cells after 48 hrs by SRB assay; type: functional; details: SK-OV-3, 48 h
SK-MEL-5 = assay: Growth inhibition of human SK-MEL-5 cells after 48 hrs by SRB assay; type: functional; details: SK-MEL-5, 48 h
A498 = assay: Growth inhibition of human A498 cells after 48 hrs by SRB assay; type: functional; details: A498, 48 h
Malme-3M = assay: Growth inhibition of human MALME-3M cells after 48 hrs by SRB assay; type: functional
NCI-H226 = assay: Growth inhibition of human NCI-H226 cells after 48 hrs by SRB assay; type: functional; details: NCI-H226, 48 h
RPMI-8226 = assay: Growth inhibition of human RPMI8226 cells after 48 hrs by SRB assay; type: functional; details: RPMI-8226, 48 h
SW-620 = assay: Growth inhibition of human SW620 cells after 48 hrs by SRB assay; type: functional; details: SW-620, 48 h
HT-29 = assay: Growth inhibition of human HT-29 cells after 48 hrs by SRB assay; type: functional; details: HT-29, 48 h
SK-MEL-2 = assay: Growth inhibition of human SK-MEL-2 cells after 48 hrs by SRB assay; type: functional; details: SK-MEL-2, 48 h
[7] = Growth inhibition of human HCT15 cells after 48 hrs by SRB assay; type: functional; details: HCT-15, 48 h
NCI-H522 = assay: Growth inhibition of human NCI-H522 cells after 48 hrs by SRB assay; type: functional; details: NCI-H522, 48 h
HOP-62 = assay: Growth inhibition of human HOP62 cells after 48 hrs by SRB assay; type: functional; details: HOP-62, 48 h
SK-MEL-28 = assay: Growth inhibition of human SK-MEL-28 cells after 48 hrs by SRB assay; type: functional; details: SK-MEL-28, 48 h
[8] = Growth inhibition of human OVCAR5 cells after 48 hrs by SRB assay; type: functional; details: OVCAR-5, 48 h
SNB-75 = assay: Growth inhibition of human SNB75 cells after 48 hrs by SRB assay; type: functional; details: SNB-75, 48 h
MDA-MB-468 = assay: Growth inhibition of human MDA-MB-468 cells after 48 hrs by SRB assay; type: functional; details: MDA-MB-468, 48 h
ACHN = assay: Growth inhibition of human ACHN cells after 48 hrs by SRB assay; type: functional
[9] = Growth inhibition of human OVCAR4 cells after 48 hrs by SRB assay; type: functional; details: OVCAR-4, 48 h
SF-268 = assay: Growth inhibition of human SF268 cells after 48 hrs by SRB assay; type: functional; details: SF-268, 48 h
SR = assay: Growth inhibition of human SR cells after 48 hrs by SRB assay; type: functional
NCI-H460 = assay: Growth inhibition of human NCI-H460 cells after 48 hrs by SRB assay; type: functional; details: NCI-H460, 48 h
T47D = assay: Growth inhibition of human T47D cells after 48 hrs by SRB assay; type: functional
CCRF-CEM = assay: Growth inhibition of human CCRF-CEM cells after 48 hrs by SRB assay; type: functional
A549 = assay: Growth inhibition of human A549 cells after 48 hrs by SRB assay; type: functional; details: A549, 48 h
MCF7 [10] = assay: Cell cycle arrest in human MCF7 cells assessed as accumulation at G0/G1 phase at 4 uM after 24 hrs by propidium iodide staining-based flow cytometry (reference value: 64.04%); type: functional
K562 = assay: Growth inhibition of human K562 cells after 48 hrs by SRB assay; type: functional; details: K562, 48 h
SN12C = assay: Growth inhibition of human SN12C cells after 48 hrs by SRB assay; type: functional
IGROV-1 = assay: Growth inhibition of human IGROV1 cells after 48 hrs by SRB assay; type: functional; details: IGROV-1, 48 h
[11] = Growth inhibition of human UO31 cells after 48 hrs by SRB assay; type: functional; details: UO-31, 48 h
MCF7 [12] = assay: Growth inhibition of human MCF7 cells assessed as cell viability at 4 uM after 24 hrs by MTT assay; type: functional, cell-based
[13] = Growth inhibition of human UACC257 cells after 48 hrs by SRB assay; type: functional; details: UACC-257, 48 h
MCF7 [14] = assay: Growth inhibition of human MCF7 cells after 48 hrs by SRB assay; type: functional; details: MCF7, 48 h
[15] = Growth inhibition of human LOXIMVI cells after 48 hrs by SRB assay; type: functional; details: LOX IMVI
[16] = Growth inhibition of human RXF393 cells after 48 hrs by SRB assay; type: functional; details: RXF 393, 48 h
[17] = Growth inhibition of human Hs578T cells after 48 hrs by SRB assay; type: functional; details: Hs-578T
[18] = Growth inhibition of human SF295 cells after 48 hrs by SRB assay; type: functional; details: SF-295, 48 h
TK-10 = assay: Growth inhibition of human TK10 cells after 48 hrs by SRB assay; type: functional; details: TK-10, 48 h
[19] = Growth inhibition of human EKVX cells after 48 hrs by SRB assay; type: functional
M14 = assay: Growth inhibition of human M14 cells after 48 hrs by SRB assay; type: functional; details: M14, 48 h
HL-60(TB) = assay: Growth inhibition of human HL-60(TB) cells after 48 hrs by SRB assay; type: functional; details: HL-60, 48 h
NCI-H23 = assay: Growth inhibition of human NCI-H23 cells after 48 hrs by SRB assay; type: functional; details: NCI-H23, 48 h
KM12 = assay: Growth inhibition of human KM12 cells after 48 hrs by SRB assay; type: functional; details: KM12, 48 h
MDA-MB-435 = assay: Growth inhibition of human MDA-MB-435 cells after 48 hrs by SRB assay; type: functional; details: MDA-MB-435, 48 h
MDA-MB-231 = assay: Growth inhibition of human MDA-MB-231 cells after 48 hrs by SRB assay; type: functional; details: MDA-MB-231, 48 h
[20] = Growth inhibition of human OVCAR3 cells after 48 hrs by SRB assay; type: functional; details: OVCAR-3, 48 h
[21] = Growth inhibition of human SF539 cells after 48 hrs by SRB assay; type: functional; details: SF-539, 48 h
[22] = Growth inhibition of human OVCAR8 cells after 48 hrs by SRB assay; type: functional; details: OVCAR-8, 48 h
DU-145 = assay: Growth inhibition of human DU145 cells after 48 hrs by SRB assay; type: functional; details: DU-145, 48 h
MCF7 [23] = assay: Cell cycle arrest in human MCF7 cells assessed as accumulation at G2/M phase at 4 uM after 24 hrs by propidium iodide staining-based flow cytometry (reference value: 15.79%); type: functional
[24] = Growth inhibition of human HOP92 cells after 48 hrs by SRB assay; type: functional; details: HOP-92, 48 h

## COc1ccc(-c2nc3ncccn3c2/C=C/C(=O)c2cc(OC)c(OC)c(OC)c2)cc1
[1]
  GI50: 1580 nM
[2]
  GI50: 1450 nM
CAKI-1
  GI50: 1580 nM
MCF7 [3]
  Activity: 8.43%
786-0
  GI50: 1840 nM
U-251
  GI50: 1290 nM
HCT-116
  GI50: 1170 nM
SNB-19
  GI50: 3010 nM
[4]
  GI50: 1560 nM
[5]
  GI50: 1880 nM
NCI-H322M
  GI50: 1760 nM
[6]
  GI50: 3100 nM
PC-3
  GI50: 4320 nM
COLO 205
  GI50: 1700 nM
SK-OV-3
  GI50: 2500 nM
SK-MEL-5
  GI50: 1520 nM
A498
  GI50: 2130 nM
Malme-3M
  GI50: 1810 nM
NCI-H226
  GI50: 2280 nM
RPMI-8226
  GI50: 2210 nM
SW-620
  GI50: 1750 nM
HT-29
  GI50: 2190 nM
SK-MEL-2
  GI50: 1870 nM
[7]
  GI50: 1380 nM
NCI-H522
  GI50: 1660 nM
HOP-62
  GI50: 2830 nM
SK-MEL-28
  GI50: 1650 nM
[8]
  GI50: 1530 nM
SNB-75
  GI50: 1890 nM
MDA-MB-468
  GI50: 1810 nM
ACHN
  GI50: 1570 nM
[9]
  GI50: 2910 nM
SF-268
  GI50: 2360 nM
SR
  GI50: 1530 nM
NCI-H460
  GI50: 1430 nM
T47D
  GI50: 2530 nM
CCRF-CEM
  GI50: 4010 nM
A549
  GI50: 2710 nM
MCF7 [10]
  Activity: 90.04%
K562
  GI50: 2630 nM
SN12C
  GI50: 2560 nM
IGROV-1
  GI50: 2200 nM
[11]
  GI50: 510 nM
MCF7 [12]
  inhibition: Active
[13]
  GI50: 1820 nM
MCF7 [14]
  GI50: 1140 nM
[15]
  GI50: 1460 nM
[16]
  GI50: 1110 nM
[17]
  GI50: 1910 nM
[18]
  GI50: 2390 nM
TK-10
  GI50: 2880 nM
[19]
  GI50: 1610 nM
M14
  GI50: 1530 nM
HL-60(TB)
  GI50: 2520 nM
NCI-H23
  GI50: 1350 nM
KM12
  GI50: 1610 nM
MDA-MB-435
  GI50: 2280 nM
MDA-MB-231
  GI50: 2730 nM
[20]
  GI50: 1750 nM
[21]
  GI50: 1360 nM
[22]
  GI50: 2720 nM
DU-145
  GI50: 2550 nM
MCF7 [23]
  Activity: 1.53%
[24]
  GI50: 1430 nM
